These compounds were tested against T1, Acetylcholinesterase (Bos taurus, UniProt P23795) (assay: Inhibition of acetylcholinesterase from bovine erythrocyte).
T1 sequence (P23795 whole entry): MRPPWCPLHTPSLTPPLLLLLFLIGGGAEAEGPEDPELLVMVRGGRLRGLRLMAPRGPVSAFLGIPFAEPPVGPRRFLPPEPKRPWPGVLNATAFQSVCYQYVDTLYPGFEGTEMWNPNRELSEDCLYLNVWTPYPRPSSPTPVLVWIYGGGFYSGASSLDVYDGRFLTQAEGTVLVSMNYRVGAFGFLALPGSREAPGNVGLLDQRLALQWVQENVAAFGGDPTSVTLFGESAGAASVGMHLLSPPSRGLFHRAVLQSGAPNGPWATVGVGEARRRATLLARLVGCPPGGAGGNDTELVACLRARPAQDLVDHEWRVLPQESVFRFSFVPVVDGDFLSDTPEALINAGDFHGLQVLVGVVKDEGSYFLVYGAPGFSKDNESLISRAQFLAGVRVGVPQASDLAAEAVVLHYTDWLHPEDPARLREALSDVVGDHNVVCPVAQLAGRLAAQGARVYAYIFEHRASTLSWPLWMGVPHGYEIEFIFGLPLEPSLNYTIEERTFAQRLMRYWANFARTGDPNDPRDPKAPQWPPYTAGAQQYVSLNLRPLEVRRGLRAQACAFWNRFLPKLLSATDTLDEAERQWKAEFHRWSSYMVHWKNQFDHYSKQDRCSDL

`C=C[C@@H]1[C@H]2C=C(C(=O)O)C[C@]1(NC)c1ccc(=O)[nH]c1C2` [LYCOPARIN B] and `C=C[C@@H]1[C@H]2C=C(C(=O)O)C[C@]1(N(C)C)c1ccc(=O)[nH]c1C2` [LYCOPARIN A] cannot be ordered by IC50: over 200 µM for the first, over 200 µM for the second.

`C=C[C@@H]1[C@H]2C=C(CO)C[C@]1(N)c1ccc(=O)[nH]c1C2` [LYCOPARIN C] showed an IC50 of 25 µM.
